{"source": "patent US12024510B2", "about": "“Pyrazolopyridine-diamides, their use as insecticide and processes for preparing the same” (PI INDUSTRIES LTD., priority 2017, dated 2024)", "key": {"Helicoverpa armigera": {"test_system": "Helicoverpa armigera", "test": "Helicoverpa armigera diet incorporation method", "format": "in vivo", "details": "third instar larvae, dead and moribund combined, 96 h after release", "procedure": "(§1) Test Solutions were Prepared According to the Procedure Described Herein Below (500 PPM):\n(§2) • 1. Eppendorf Vortex mixer (ThermoMixer C) and 1.5 mL Eppendorf tubes • 2. Zirconia (Zirconium-Yttrium) beads having diameter of 0.8 to 1.0 mm • 3. Microscope • 4. Beaker 100 mL • 5. Micro-pipette Reagents: • 1. Surfactant Solution • 2. De-mineralized (DM) Water • 1. Weigh 10 mg of the compound of the present invention to be tested in an Eppendorf Tube. • 2. Add 200 mg of the Surfactant Solution into the tube. • 3. Add 600 mg of Zirconia beads into the above mixture. • 4. Fix the tube in Eppendorf Vortex mixer and start vortexing at 2000 rpm. • 5. Mix on Vortex mixer for 30 minutes. After 30 minutes, observe the sample over a microscope at 400× resolution. • 6. If the Maximum particle size is more than 5 μm or average particle size is more than 2 μm or the particle size distribution is uneven, continue vortexing for another 30 minutes and again check the particle size using the microscope. Continue till the average particle size is below 2 microns. • 7. When the required particle size is achieved, add 1.0 mL DM water into the tube, close the cap, shake the tube thoroughly and transfer the contents, along with the beads, into a beaker. • 8. To rinse the tube, add another 1.0 mL of DM water into the tube, close the cap, shake well and transfer this into the same beaker. • 9. Repeat Step no. 8 one more time so that the tube is rinsed well and the compound of the present invention to be tested is transferred to the beaker. • 10. Add 16.8 mL of DM water into the beaker and stir well. • 11. The homogeneous dispersion can then be decanted into a glass vial, immediately, to separate the Zirconia beads. • 12. Immediately use this sample for biological testing. • 13. Further dilutions can be prepared by taking appropriate quantity of the aliquot of Step 10, immediately after stirring, and diluting as per requirement. The sample solution must be well mixed just before biological testing.\nDiet incorporation method was used, in which and semi-synthetic diet was incorporated into the test solution when the temperature is approximately 50° C. in the bioassay containers and stirred thoroughly for properly mixing and then was allowed to cool for 30 min. The solidified diet was cut into equal pieces, and then each piece was transferred in one cell in Bio-assay trays. A single third instar starved larva was released into each of these cells of bioassay trays and the tray was covered with the lid. The bio-assay trays were kept under laboratory conditions at a temperature of 25° C. and Relative Humidity of 70%. Observations on dead, moribund and live larvae were recorded at 96 h after the release of larvae. Percent mortality was calculated by combining dead and moribund larvae. The following compound numbers"}, "Plutella xylostella": {"test_system": "Plutella xylostella", "test": "whole plant or invertebrate", "format": "in vivo", "details": "foliar, cabbage leaf dip, second instar larvae, dead and moribund combined, 72 h after release", "procedure": "as §1, §2\nLeaf dip method was used for screening, wherein the required quantity of the compounds were weighed and dissolved in the test solution into the tube and vortex at 2000 rpm with Zirconia beads for 90 min for proper mixing, then mixed with 0.01% Triton-X solution to get the desired test concentration. Cabbage leaves were dipped in the solution for 10 seconds, shade dried for 20 min and then transferred to bioassay trays. Single second instar larva was released into each cell and the tray was covered with lid. The bio-assay trays were kept under laboratory conditions at a temperature of 25° C. and relative humidity of 70%. Observations on dead, moribund and live larvae were recorded at 72 h after the release. Percent mortality was calculated by combining dead and moribund larvae. The following compound num."}}, "data": [{"smiles": "CCCNC(=O)c1c(NC(=O)c2cc(OC)nn2-c2ncccc2Cl)c(Br)cc2ccnn12", "note": "[Compound 120, 5-bromo-6-(1-(3-chloropyridin-2-yl)-3-methoxy-1H-pyrazole-5-carboxamido)-N-propylpyrazolo[1,5-a]pyridine-7-carboxamide]", "values": [{"measurement": "mortality at 300 ppm", "setting": "Helicoverpa armigera", "result": "> 70", "unit": "%"}]}, {"smiles": "COc1cc(C(=O)Nc2c(Br)cc3ccnn3c2C(=O)NC2CC2)n(-c2ncccc2Cl)n1", "note": "[Compound 122, 5-bromo-6-(1-(3-chloropyridin-2-yl)-3-methoxy-1H-pyrazole-5-carboxamido)-N-cyclopropylpyrazolo[1,5-a]pyridine-7-carboxamide]", "values": [{"measurement": "mortality at 300 ppm", "setting": "Helicoverpa armigera", "result": "> 70", "unit": "%"}]}, {"smiles": "COc1cc(C(=O)Nc2c(Br)cc3ccnn3c2C(=O)NCC2CC2)n(-c2ncccc2Cl)n1", "note": "[Compound 123, 5-bromo-6-(1-(3-chloropyridin-2-yl)-3-methoxy-1H-pyrazole-5-carboxamido)-N-(cyclopropylmethyl)pyrazolo[1,5-a]pyridine-7-carboxamide]", "values": [{"measurement": "mortality at 300 ppm", "setting": "Helicoverpa armigera", "result": "> 70", "unit": "%"}]}, {"smiles": "CONC(=O)c1c(NC(=O)c2cc(OC)nn2-c2ncccc2Cl)c(Br)cc2ccnn12", "note": "[Compound 124, 5-bromo-6-(1-(3-chloropyridin-2-yl)-3-methoxy-1H-pyrazole-5-carboxamido)-N-methoxypyrazolo[1,5-a]pyridine-7-carboxamide]", "values": [{"measurement": "mortality at 300 ppm", "setting": "Helicoverpa armigera", "result": "> 70", "unit": "%"}]}, {"smiles": "O=C(Nc1c(Cl)cc2ccnn2c1C(=O)NCC(F)(F)F)c1cc(Br)nn1-c1ncccc1Cl", "note": "[Compound 143, 6-(3-bromo-1-(3-chloropyridin-2-yl)-1H-pyrazole-5-carboxamido)-5-chloro-N-(2,2,2-trifluoroethyl)pyrazolo[1,5-a]pyridine-7-carboxamide]", "values": [{"measurement": "mortality at 300 ppm", "setting": "Helicoverpa armigera", "result": "> 70", "unit": "%"}]}, {"smiles": "CCC(COC)NC(=O)c1c(NC(=O)c2cc(Br)nn2-c2ncccc2Cl)c(C)cc2ccnn12", "note": "(centres unmarked) [Compound 192, 6-(3-bromo-1-(3-chloropyridin-2-yl)-1H-pyrazole-5-carboxamido)-N-(1-methoxybutan-2-yl)-5-methylpyrazolo[1,5-a]pyridine-7-carboxamide]", "values": [{"measurement": "mortality at 300 ppm", "setting": "Plutella xylostella", "result": "> 70", "unit": "%"}]}, {"smiles": "CCC(COC)NC(=O)c1c(NC(=O)c2cc(OC)nn2-c2ncccc2Cl)c(C)cc2ccnn12", "note": "(centres unmarked) [Compound 205, 6-(1-(3-chloropyridin-2-yl)-3-methoxy-1H-pyrazole-5-carboxamido)-N-(1-methoxybutan-2-yl)-5-methylpyrazolo[1,5-a]pyridine-7-carboxamide]", "values": [{"measurement": "mortality at 300 ppm", "setting": "Plutella xylostella", "result": "> 70", "unit": "%"}]}, {"smiles": "Cc1cc2ccnn2c(C(=O)NC2CS(=O)(=O)C2)c1NC(=O)c1cc(Br)nn1-c1ncccc1Cl", "note": "[Compound 208, 6-(3-bromo-1-(3-chloropyridin-2-yl)-1H-pyrazole-5-carboxamido)-N-(1,1-dioxidothietan-3-yl)-5-methylpyrazolo[1,5-a]pyridine-7-carboxamide]", "values": [{"measurement": "mortality at 300 ppm", "setting": "Plutella xylostella", "result": "> 70", "unit": "%"}]}, {"smiles": "COc1cc(C(=O)Nc2c(C)cc3ccnn3c2C(=O)NC(C)CCC(C)C)n(-c2ncccc2Cl)n1", "note": "(centres unmarked) [Compound 210, 6-(1-(3-chloropyridin-2-yl)-3-methoxy-1H-pyrazole-5-carboxamido)-5-methyl-N-(5-methylhexan-2-yl)pyrazolo[1,5-a]pyridine-7-carboxamide]", "values": [{"measurement": "mortality at 300 ppm", "setting": "Plutella xylostella", "result": "> 70", "unit": "%"}]}, {"smiles": "COc1cc(C(=O)Nc2c(C)cc3ccnn3c2C(=O)NC(C)C(C)C)n(-c2ncccc2Cl)n1", "note": "(centres unmarked) [Compound 212, 6-(1-(3-chloropyridin-2-yl)-3-methoxy-1H-pyrazole-5-carboxamido)-5-methyl-N-(3-methylbutan-2-yl)pyrazolo[1,5-a]pyridine-7-carboxamide]", "values": [{"measurement": "mortality at 300 ppm", "setting": "Plutella xylostella", "result": "> 70", "unit": "%"}]}, {"smiles": "COc1cc(C(=O)Nc2c(Br)cc3ccnn3c2C(=O)NC2(C)CC2)n(-c2ncccc2Cl)n1", "note": "[Compound 223, 5-bromo-6-(1-(3-chloropyridin-2-yl)-3-methoxy-1H-pyrazole-5-carboxamido)-N-(1-methylcyclopropyl)pyrazolo[1,5-a]pyridine-7-carboxamide]", "values": [{"measurement": "mortality at 300 ppm", "setting": "Plutella xylostella", "result": "> 70", "unit": "%"}]}]}
